Assay results published in ChEMBL document CHEMBL3351456, “Synthesis and antiviral activities of 3-deaza-3-fluoroaristeromycin and its 5' analogues” (Bioorg Med Chem, 2014).

Legend:
[1] = Inhibition of rabbit erythrocyte SAHase using S-adenosyl-L-homocysteine as substrate assessed as L-homocysteine formation incubated for 5 mins prior to substrate addition measured after 1 hr; parameters: species or system Oryctolagus cuniculus
[2] = Cytotoxicity against human MRC5 cells; type: cell-based
Measles morbillivirus = assay: Antiviral activity against Measles virus infected in human MRC5 cells; type: functional, organism-based
[3] = Cytotoxicity against African green monkey Vero E6 cells; type: cell-based; details: chlorocebus sabaeus
[4] = Selectivity index, ratio of CC50 for human MRC5 cells to IC50 for Measles virus; type: functional
[5] = Selectivity index, ratio of CC50 for HFF cells to IC50 for Vaccinia virus; type: functional
[6] = Selectivity index, ratio of CC50 for HEK293 cells to IC50 for Human papillomavirus; type: functional
[7] = Cytotoxicity against African green monkey Vero cells; type: cell-based; details: chlorocebus sabaeus
[8] = Cytotoxicity against African green monkey Vero 76 cells; type: cell-based; details: chlorocebus sabaeus
Monkeypox virus = assay: Antiviral activity against Monkeypox virus infected in African green monkey Vero E6 cells; type: functional, organism-based
[9] = Selectivity index, ratio of CC50 for African green monkey Vero E6 cells to IC50 for Monkeypox virus; type: functional
Vaccinia virus = assay: Antiviral activity against Vaccinia virus infected in HFF cells; type: functional, organism-based; details: Orthopoxvirus vaccinia
Tacaribe virus = assay: Antiviral activity against Tacaribe virus infected in African green monkey Vero 76 cells; type: functional, organism-based; details: Mammarenavirus tacaribeense
Human betaherpesvirus 5 = assay: Antiviral activity against human cytomegalovirus infected in HFF cells; type: functional, organism-based; details: Human betaherpesvirus 5, HFF
[10] = Cytotoxicity against HEK293 cells; type: cell-based; details: human
Pichinde virus = assay: Antiviral activity against Pichinde virus infected in African green monkey Vero 76 cells; type: functional, organism-based
Human papillomavirus = assay: Antiviral activity against Human papillomavirus infected in HEK293 cells; type: functional, organism-based
[11] = Cytotoxicity against HFF cells; type: cell-based; details: human
Rift Valley fever virus = assay: Antiviral activity against Rift Valley fever virus infected in African green monkey Vero 76 cells; type: functional, organism-based
[12] = Selectivity index, ratio of CC50 for African green monkey Vero cells to IC50 for Tacaribe virus; type: functional
[13] = Selectivity index, ratio of CC50 for African green monkey Vero cells to IC50 for Pichinde virus; type: functional
[14] = Selectivity index, ratio of CC50 for HFF cells to IC50 for human cytomegalovirus; type: functional
[15] = Selectivity index, ratio of CC50 for African green monkey Vero 76 cells to IC50 for Rift Valley fever virus; type: functional
Hepatitis B virus = assay: Antiviral activity against HBV; type: functional, organism-based

Compound Nc1nccc2c1ncn2[C@@H]1C=C(CO)[C@@H](O)[C@H]1O has an IC50 [1] of 0.0093 µM.

With Nc1ncc(F)c2c1ncn2[C@@H]1C[C@H](O)[C@@H](O)[C@H]1O the CC50 [2] was > 100 µM, the IC50 [1] was 0.0058 µM and the IC50 (Measles morbillivirus) was < 0.32 µM. The CC50 [3] was > 100 µM, the “Ratio CC50/IC50” value [4] was >313 and the “Ratio CC50/IC50” value [5] was >2. The “Ratio CC50/IC50” value [6] was >4, the CC50 [7] was > 300 µM and the CC50 [8] was > 300 µM. The IC50 (Monkeypox virus) was < 0.32 µM, the “Ratio CC50/IC50” value [9] was >313 and the IC50 (Vaccinia virus) was 142 µM. The IC50 (Tacaribe virus) was > 300 µM, the IC50 (Human betaherpesvirus 5) was > 300 µM and the CC50 [10] was > 100 µM. The IC50 (Pichinde virus) was > 300 µM, the IC50 (Human papillomavirus) was 23.9 µM and the CC50 [11] was > 300 µM. For the same compound, the IC50 (Rift Valley fever virus) was > 300 µM.

For Nc1ncc(F)c2c1ncn2[C@@H]1C[C@H](CO)[C@@H](O)[C@H]1O, the CC50 [2] was > 100 µM, the IC50 [1] was 0.029 µM and the IC50 (Measles morbillivirus) was < 0.32 µM. For the same compound, the CC50 [3] was > 100 µM, the “Ratio CC50/IC50” value [12] was 11 and the “Ratio CC50/IC50” value [4] was >313. For the same compound, the “Ratio CC50/IC50” value [5] was >6, the “Ratio CC50/IC50” value [13] was 7 and the CC50 [7] was 159 µM. For the same compound, the CC50 [8] was > 300 µM, the IC50 (Monkeypox virus) was < 0.32 µM and the “Ratio CC50/IC50” value [9] was >313. For the same compound, the “Ratio CC50/IC50” value [14] was <3, the IC50 (Vaccinia virus) was 48 µM and the IC50 (Tacaribe virus) was 14 µM. The IC50 (Human betaherpesvirus 5) was > 60 µM, the CC50 [10] was > 100 µM and the IC50 (Pichinde virus) was 24 µM. The IC50 (Human papillomavirus) was > 100 µM, the CC50 [11] was > 178 µM and the “Ratio CC50/IC50” value [15] was >6.3. For the same compound, the IC50 (Rift Valley fever virus) was 56 µM.

For Nc1ncc(F)c2c1ncn2[C@@H]1C[C@H](CCO)[C@@H](O)[C@H]1O, the CC50 [2] was > 100 µM, the IC50 [1] was 0.009 µM and the IC50 (Measles morbillivirus) was < 0.32 µM. For the same compound, the CC50 [3] was > 100 µM, the “Ratio CC50/IC50” value [12] was 20 and the “Ratio CC50/IC50” value [4] was >313. For the same compound, the “Ratio CC50/IC50” value [5] was >5, the “Ratio CC50/IC50” value [13] was 5.7 and the CC50 [7] was 128 µM. For the same compound, the CC50 [8] was > 300 µM, the IC50 (Monkeypox virus) was < 0.32 µM and the “Ratio CC50/IC50” value [9] was >313. For the same compound, the “Ratio CC50/IC50” value [14] was 177, the IC50 (Vaccinia virus) was 55.2 µM and the IC50 (Tacaribe virus) was 6.4 µM. For the same compound, the IC50 (Human betaherpesvirus 5) was 1.49 µM, the CC50 [10] was > 100 µM and the IC50 (Pichinde virus) was 30 µM. The IC50 (Human papillomavirus) was > 100 µM, the CC50 [11] was > 264 µM and the “Ratio CC50/IC50” value [15] was >10. For the same compound, the IC50 (Rift Valley fever virus) was 34 µM.

Compound Nc1ncc(F)c2c1ncn2[C@@H]1O[C@H](CO)[C@@H](O)[C@H]1O has an EC50 (Hepatitis B virus) of 9.2 µM.
